# Measurements taken from patent US4570013A, “Biphenylylalkanoic acid derivatives, methods of preparation and pharmaceutical compositions therefrom” (Dr. L. Zambeletti S.p.A., priority 1983, dated 1986).
# Like-named read-outs stand apart in the source and are kept apart here.
# Legend:
# [1] = test system: oedema induced in the rats' paw by intradermic injection of carrageenin; test: carrageenin-induced paw oedema (method of Winter), antiinflammatory activity; type: in vivo; conditions: Rattus norvegicus, po, os, read-out: Antiinflammatory activity (oedema caused by carrageenin in rats) ED50
# [2] = test system: Hyperthermia caused by brewer's yeast in rats; test: brewer's yeast hyperthermia (method of C. Winter), antipyretic activity; type: in vivo; conditions: for ED50: Rattus norvegicus, po, rats, os, read-out: Antipyretic activity (temperature increase by brewer's yeast, in rats) ED50
# Excerpt: The antipyretic activity has been studied according to the method of C. Winter, Toxicol. and Appl. Pharmacol., 5, 247 (1963), in rats, by determining the ability of the substance to reduce the increase of body temperature caused by the subcutaneous administration of brewer's yeast.
# [3] = gastrolesive action after single doses; conditions: rat, in vivo, po
# [4] = test system: writhings caused by 2-phenylparabenzoquinone in mice; test: writhing test (method of Siegmund), 2-phenylparabenzoquinone, analgesic activity; type: in vivo, Swiss mice; conditions: for ED50: Mus musculus, po; for Contorsions % (change vs controls) / No. Contorsions: orally at ED50: biphenylylacetic acid 12, Ia 32 mg/kg
# Excerpt: The analgesic activity has been studied according to the method described by Siegmund (E. Siegmund et al, Proc. Soc. Exptl. Biol. Med., 95, 729 (1957)), according to which the algogenic stimulus consists of the intraperitoneal injection of 2-phenylparabenzoquinone and the algesia manifests itself in repeated abdominal contractions with an extension of the rear limbs and contorsions of the body ("writhing test").
# in vivo = conditions: rat, po
smiles,measurement,setting,value
"COc1ccc2cc(C(C)C(=O)O)ccc2c1 (stereo not drawn) [Naproxen, 6-methoxy-α-methyl-2-naphthaleneacetic acid, reference compound]",ED50,[1],24 mg/kg
same,ED50,[2],112 mg/kg
same,TD50,[3],17 mg/kg
same,ED50,[4]; read-out: Analgesic activity (against pain caused by 2-phenyl-p-benzo-quinone in mice) ED50,20 mg/kg
O=C(O)Cc1ccc(-c2ccccc2)cc1 [reference compound],ED50,[1],10.9 mg/kg
same,Temperature change Δt after administration of the substance,"[2]; 3 mg/kg os, 1 h",-0.48 °C
same,"Temperature after administration of the substance, t","[2]; 3 mg/kg os, 2 h",37.81±0.05 °C
same,Temperature change Δt after administration of the substance,"[2]; 3 mg/kg os, 2 h",-0.65 °C
same,"P/S, ratio of protected animals with respect to total screened animals","[2]; 3 mg/kg os, 3 h",2/10
same,"Temperature after administration of the substance, t","[2]; 3 mg/kg os, 3 h",37.69±0.08 °C
same,Temperature change Δt after administration of the substance,"[2]; 3 mg/kg os, 3 h",-0.70 °C
same,"Temperature after administration of the substance, t","[2]; 3 mg/kg os, 4 h",37.89±0.08 °C
same,Temperature change Δt after administration of the substance,"[2]; 3 mg/kg os, 4 h",-0.41 °C
same,"Temperature after administration of the substance, t","[2]; 3 mg/kg os, 5 h",38.12±0.13 °C
same,Temperature change Δt after administration of the substance,"[2]; 3 mg/kg os, 5 h",-0.14 °C
same,"Temperature after administration of the substance, t","[2]; 3 mg/kg os, 6 h",38.19±0.11 °C
same,Temperature change Δt after administration of the substance,"[2]; 3 mg/kg os, 6 h",-0.05 °C
same,"Temperature after administration of the substance, t","[2]; 6 mg/kg os, 1 h",37.80±0.09 °C
same,Temperature change Δt after administration of the substance,"[2]; 6 mg/kg os, 1 h",-0.84 °C
same,"Temperature after administration of the substance, t","[2]; 6 mg/kg os, 2 h",37.46±0.09 °C
same,Temperature change Δt after administration of the substance,"[2]; 6 mg/kg os, 2 h",-1.00 °C
same,"P/S, ratio of protected animals with respect to total screened animals","[2]; 6 mg/kg os, 3 h",5/10
same,"Temperature after administration of the substance, t","[2]; 6 mg/kg os, 3 h",37.28±0.07 °C
same,Temperature change Δt after administration of the substance,"[2]; 6 mg/kg os, 3 h",-1.11 °C
same,"Temperature after administration of the substance, t","[2]; 6 mg/kg os, 4 h",37.40±0.09 °C
same,Temperature change Δt after administration of the substance,"[2]; 6 mg/kg os, 4 h",-0.90 °C
same,"Temperature after administration of the substance, t","[2]; 6 mg/kg os, 5 h",37.65±0.10 °C
same,Temperature change Δt after administration of the substance,"[2]; 6 mg/kg os, 5 h",-0.63 °C
same,"Temperature after administration of the substance, t","[2]; 6 mg/kg os, 6 h",37.81±0.12 °C
same,Temperature change Δt after administration of the substance,"[2]; 6 mg/kg os, 6 h",-0.37 °C
same,"Temperature after administration of the substance, t","[2]; 12 mg/kg os, 1 h",37.71±0.08 °C
same,Temperature change Δt after administration of the substance,"[2]; 12 mg/kg os, 1 h",-0.93 °C
same,"Temperature after administration of the substance, t","[2]; 12 mg/kg os, 2 h",37.33±0.06 °C
same,Temperature change Δt after administration of the substance,"[2]; 12 mg/kg os, 2 h",-1.13 °C
same,"P/S, ratio of protected animals with respect to total screened animals","[2]; 12 mg/kg os, 3 h",8/10
same,"Temperature after administration of the substance, t","[2]; 12 mg/kg os, 3 h",37.09±0.07 °C
same,Temperature change Δt after administration of the substance,"[2]; 12 mg/kg os, 3 h",-1.30 °C
same,"Temperature after administration of the substance, t","[2]; 12 mg/kg os, 4 h",37.18±0.07 °C
same,Temperature change Δt after administration of the substance,"[2]; 12 mg/kg os, 4 h",-1.12 °C
same,"Temperature after administration of the substance, t","[2]; 12 mg/kg os, 5 h",37.43±0.08 °C
same,Temperature change Δt after administration of the substance,"[2]; 12 mg/kg os, 5 h",-0.93 °C
same,"Temperature after administration of the substance, t","[2]; 12 mg/kg os, 6 h",37.58 °C
same,Temperature change Δt after administration of the substance,"[2]; 12 mg/kg os, 6 h",-0.66 °C
same,ED50,[2],6 mg/kg
same,TD50,in vivo,16.5 mg/kg
same,Contorsions % (change vs controls),[4]; 5 minutes,-27%
same,No. Contorsions,[4]; 5 minutes,33.4 ± 3.0
same,Contorsions % (change vs controls),[4]; 15 minutes,-41%
same,No. Contorsions,[4]; 15 minutes,31.0 ± 4.7
same,Contorsions % (change vs controls),[4]; 30 minutes,-57%
same,No. Contorsions,[4]; 30 minutes,21.3 ± 2.6
same,Contorsions % (change vs controls),[4]; 1 hour,-49%
same,No. Contorsions,[4]; 1 hour,25.6 ± 2.9
same,Contorsions % (change vs controls),[4]; 2 hours,-42%
same,No. Contorsions,[4]; 2 hours,25.1 ± 2.8
same,Contorsions % (change vs controls),[4]; 3 hours,-47%
same,No. Contorsions,[4]; 3 hours,26.0 ± 4.0
same,Contorsions % (change vs controls),[4]; 4 hours,-28%
same,No. Contorsions,[4]; 4 hours,34.9 ± 3.6
same,Contorsions % (change vs controls),[4]; 5 hours,-1%
same,No. Contorsions,[4]; 5 hours,45.0 ± 2.3
same,ED50,"[4]; mice, orally, read-out: ED50, analgesic activity (writhing test)",12 mg/kg
